According to patent US20020132792A1, “Aryl-substituted indirubin derivatives, their production and use” (Schering AG, priority 2000, published 2002):

Experiments:
CDK2/CycE = molecular target: T1, CDK2/CycE (Homo sapiens, UniProt P24941); test: CDK2/CycE kinase assay; assay type: biochemical; details: recombinant CDK2/CycE-GST, histone IIIS substrate, 0.5 μm ATP, 15 minutes at 22° C.
T1 construct: GST; purchased Dr. Dieter Marmé, Klinik für Tumorbiologie, Freiburg (obtained from an outside laboratory); host or cells: baculovirus-infected Sf9 insect cells
Protocol: Recombinant CDK2- and CycE-GST-fusion proteins, purified from baculovirus-infected insect cells (Sf9), were obtained by Dr. Dieter Marmé, Klinik für Tumorbiologie [Clinic for Tumor Biology], Freiburg. Histone IIIS, which was used as a kinase substrate, was purchased by the Sigma Company.
CDK2/CycE (50 ng/measuring point) was incubated for 15 minutes at 22° C. in the presence of various concentrations of test substances (0 μm, as well as within the range of 0.01-100 μm) in assay buffer [50 mmol of tris/HCl pH 8.0, 10 mmol of MgCl2, 0.1 mmol of Na ortho-vanadate, 1.0 mmol of dithiothreitol, 0.5 μm of adenosine triphosphate (ATP), 10 μg/measuring point of histone IIIS, 0.2 μCi/measuring point of ^33P-gamma ATP, 0.05% NP40, 12.5% dimethyl sulfoxide]. The reaction was stopped by adding EDTA solution (250 mmol, pH 8.0, 14 μl/measuring point).
From each reaction batch, 10 μl was applied to P30 filter strips (Wallac Company), and non-incorporated ^33P-ATP was removed by subjecting the filter strips to three washing cycles for 10 minutes each in 0.5% phosphoric acid. After the filter strips were dried for one hour at 70° C., the filter strips were covered with scintillator strips (MeltiLex™ A, Wallac Company) and baked for one hour at 90° C. The amount of incorporated ^33P (substrate phosphorylation) was determined by scintillation measurement in a gamma-radiation measuring device (Wallac).

MCF-7 cells = test: Proliferation assay (crystal violet); assay type: cell-based; details: MCF7, 96 h, MCF-7 human tumor cells, 4 days incubation
Protocol: Cultivated human tumor cells (as indicated) were flattened out at a density of 5000 cells/measuring point in a 96-well multititer plate in 200 μl of the corresponding growth medium. After 24 hours, the cells of one plate (zero-point plate) were colored with crystal violet (see below), while the medium of the other plates was replaced by fresh culture medium (200 μl), to which the test substances were added in various concentrations (0 μm, as well as in the range of 0.01-30 μm; the final concentration of the solvent dimethyl sulfoxide was 0.5%). The cells were incubated for 4 days-in the presence of test substances. The cell proliferation was determined by coloring the cells with crystal violet: the cells were fixed by adding 20 μl/measuring point of a 11% glutaric aldehyde solution for 15 minutes at room temperature. After subjecting the fixed cells to three washing cycles with water, the plates were dried at room temperature. The cells were colored by adding 100 μL/measuring point of a 0.1% crystal violet solution (pH was set at 3 by adding acetic acid). […] The extinction was determined by photometry at a wavelength of 595 nm. The change of cell growth, in percent, was calculated by standardization of the measured values to the extinction values of the zero-point plate (=0%) and the extinction of the untreated (0 μm) cells (=100%).

SMILES	IC50 (CDK2/CycE)	melting point	IC50 (MCF-7 cells)
COc1ccc(-c2ccc3c(c2)/C(=C2/Nc4ccccc4C2=O)C(=O)N3)cc1 [Example 1.0, 5-(4-Methoxyphenyl)-indirubin]	> 5000 nM	> 300 °C	–
O=C1Nc2ccc(-c3ccccc3)cc2C1=C1Nc2ccccc2C1=O [Example 1.1]	1000 nM	–	–
CC(C)(C)[Si](C)(C)Oc1cccc(-c2ccc3c(c2)C(=C2Nc4ccccc4C2=O)C(=O)N3)c1 [Example 1.2]	150 nM	–	4000 nM
O=C1Nc2ccc(-c3cc(C(F)(F)F)cc(C(F)(F)F)c3)cc2C1=C1Nc2ccccc2C1=O [Example 1.3]	600 nM	–	–
O=C1Nc2ccc(-c3ccc(Cl)cc3)cc2C1=C1Nc2ccccc2C1=O [Example 1.4]	30 nM	–	500 nM
CC(C)(C)c1ccc(-c2ccc3c(c2)C(=C2Nc4ccccc4C2=O)C(=O)N3)cc1 [Example 1.5]	300 nM	–	–
